The target of the assay is T1, FAAH^T488A (Rattus norvegicus, UniProt P97612, T488A).
T1 construct: expressed in transfected cells; host or cells: HeLa cells, pcDNA4 plasmid, lysate
T1 sequence (P97612 1-579 T488A): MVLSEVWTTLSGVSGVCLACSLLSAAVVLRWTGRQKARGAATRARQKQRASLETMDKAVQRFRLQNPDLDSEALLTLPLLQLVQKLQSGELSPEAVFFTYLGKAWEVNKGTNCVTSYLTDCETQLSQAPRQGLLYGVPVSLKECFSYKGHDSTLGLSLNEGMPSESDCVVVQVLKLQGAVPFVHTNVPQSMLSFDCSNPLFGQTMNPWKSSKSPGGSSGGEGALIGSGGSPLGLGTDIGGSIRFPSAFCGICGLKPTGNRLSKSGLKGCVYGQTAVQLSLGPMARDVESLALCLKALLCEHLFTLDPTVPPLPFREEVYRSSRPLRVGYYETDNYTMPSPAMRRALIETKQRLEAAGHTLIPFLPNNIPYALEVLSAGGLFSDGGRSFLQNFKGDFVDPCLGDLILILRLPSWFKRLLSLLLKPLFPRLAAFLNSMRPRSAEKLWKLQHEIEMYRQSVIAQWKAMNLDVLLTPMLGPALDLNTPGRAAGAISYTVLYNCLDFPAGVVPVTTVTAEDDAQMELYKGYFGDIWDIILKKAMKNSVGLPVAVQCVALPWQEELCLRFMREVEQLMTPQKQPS
The experiment in a line: Inhibition of [3H]AEA hydrolysis in lysates of HeLa cells expressing FAAH^T488A. It counts as biochemical. The conditions noted are these: FAAH^T488A lysate 0.4 μg/assay, 18 h, 0.5 μM [3H]AEA.

This note sets out measurements from publication PMC4643906, “Interaction of the N-(3-Methylpyridin-2-yl)amide Derivatives of Flurbiprofen and Ibuprofen with FAAH: Enantiomeric Selectivity and Binding Mode” (PLoS ONE, 2015).

Read-outs that look alike come from different tables or passages of the source.

Regarding `Cc1cccnc1NC(=O)[C@H](C)c1ccc(-c2ccccc2)c(F)c1` [(R)-Flu-AM1, (R)-2-(2-fluorobiphenyl-4-yl)-N-(3-methylpyridin-2-yl)propanamide], the nH came to 1.47±0.37. Also, the IC50 (read-out: IC50) was found to be 28 µM. Further, the IC50 (read-out: pI50 (converted)) is 28.2 µM.
